How the values were obtained:
[1] = tested on: human tumor cell lines; conditions: xenografts of human tumor cell lines; cited from earlier work
[2] = tested on: human tumor cell lines; conditions: broad range of human tumor cell lines; cited from earlier work
[3] = tested on: MART-1 specific CTLs; test: MART-1 specific CTL effector function (IFN-γ, TNF-α, IL-2 secretion, CD107a expression); assay type: cell-based, human; conditions: at the higher concentrations tested; compared to untreated CTLs
Procedure: (§1) PME-CD40L DCs derived from HLA-A2-positive donors and transfected with antigen-encoding mRNAs were co-cultured with purified CD8^+ T cells. All co-cultures were performed in R-10 media. CD8^+ T cells were purified using the CD8+ T Cell Negative Selection Kit II (Miltenyi Biotec) from non-adherent cells harvested from the monocyte adherence step. The CD8^+ cells were mixed with DCs at a 10:1 ratio and incubated in the presence of 0.2 µg/mL IL-2 and 10 ng/mL IL-7 (R&D Systems). DC/T cell co-cultures were re-stimulated on day 7 and supplemented with 20 units/mL IL-2 plus 10 ng/mL IL-7. Induction of primary immune responses to MART-1 and memory/recall responses to CMV pp65 were measured on day 10.
To identify antigen-specific T cell responses and the phenotype of the antigen specific cells, T cells were harvested on day 10 post-stimulation and incubated with peptide-pulsed T2 target cells at a ratio of 10:1 for 4 hour with Brefeldin A, Monensin (BD Biosciences) and CD107a PE-Cy5. […] After 4 hours of co-culture, responder T cells were stained for 10 minutes with the requisite peptide/pentamer reagent, then washed once and re-stained with CD8-Eflour605, CD45RA-FITC, and CD28-APC. Cells were then washed in PBS and stained with Aquadye (BD Biosciences) for analysis of viability. Labeled cells were then fixed and permeabilized in Fixation/Permeabilization solution (eBiosciences). […]

[4] = tested on: CMV pp65 specific CTLs; test: Induction of CMV pp65 specific recall CTLs by PME-CD40L DCs in the presence of mTOR inhibitors; assay type: cell-based, human
Procedure: (§2) 300 x 10^6 peripheral blood mononuclear cells (PBMCs) were cultured in 30 mL AIM-V media (Thermo Fisher Scientific) in T150 flasks (Corning) for 2 hours to provide for the adherence of monocytes. Non-adherent cells were removed by washing the monolayers twice with cold phosphate buffered saline (PBS) (Cambrex), and the remaining monocytes were cultured in X-VIVO 15 medium (Cambrex) for 5 days, supplemented with 1000 U/mL each of granulocyte macrophage-colony stimulating factor (GM-CSF) (Bayer AG, Leukine® liquid) and IL-4 (R&D Systems). To achieve DC maturation, immature DCs were first cultured on day 5 with 10 ng/mL tumor necrosis factor alpha (TNF-α) (R&D Systems), 1000 µ/mL interferon gamma (IFN-y) (Actimmune), and 1 µg/mL prostaglandin E2 (PGE2) (Sigma). On day 6, phenotypically mature DCs were co-electroporated with RNA encoding CD40L (Argos Lot No. 101606 JSC) at a concentration of 3 ug per million DCs plus either human cytomegalovirus (CMV) pp65 or MART-1 encoding RNAs at 2 µg per million DCs (CMVpp65 RNA-Argos Lot No 071107XF, MART-1-APL RNA-Argos Lot No. 011909HC). Generation of MART-1 RNA and CD40L RNA is described in e.g., DeBenedette et al., J. Immunol. 181(8):5296-5305 (2008).
Electroporated DCs were cultured for an additional 4 hours in X-VIVO 15 media supplemented with 800 µ/mL GM-CSF and 500 µ/mL IL-4 at 1 x 10^6 DCs/mL in low adherence 6-well plates (Costar). After 4 hr, the DCs were harvested by washing with cold PBS and prepared as a frozen formulation at 10 x 10^6 DCs/mL in 20% DMSO and 80% FBS, representing antigen electroporated Post Maturation Electroporated (PME)-CD40L DC preparations.
as §1
(§3) To identify antigen-specific T cell responses and the phenotype of the antigen specific cells, T cells were harvested on day 10 post-stimulation and incubated with peptide-pulsed T2 target cells at a ratio of 10:1 for 4 hour with Brefeldin A, Monensin (BD Biosciences) and CD107a PE-Cy5. […] After 4 hours of co-culture, responder T cells were stained for 10 minutes with the requisite peptide/pentamer reagent, then washed once and re-stained with CD8-Eflour605, CD45RA-FITC, and CD28-APC. Cells were then washed in PBS and stained with Aquadye (BD Biosciences) for analysis of viability. Labeled cells were then fixed and permeabilized in Fixation/Permeabilization solution (eBiosciences). Cells where then stained with IFN-γ-PECy7, TNFa-AF700 and IL-2-PerCPcy5.5 in permeabilization buffer and resuspended in FACs buffer prior to acquisition.
CD8^+ cytotoxic T lymphocyte (CTL) responses were used to measure the pp65 CMV recall response induced by PME-CD40L DCs in the presence of mTOR inhibitors everolimus and temsirolimus. PME-CD40L DCs encoding CMV pp65 were used to stimulate recall CTL responses in the presence of the mTOR inhibitors under evaluation for compatibility with the CMN-001 product. The expansion of recall CTLs specific for CMV pp65 was determined on day 3 after a second weekly stimulation with PME-CD40L DCs.

[5] = tested on: MART-1 specific CTLs; test: Priming of MART-1 specific CTLs by PME-CD40L DCs in the presence of mTOR inhibitors; assay type: cell-based, human; conditions: in the presence of the mTOR inhibitor, 10 ng/ml to 1 ug/ml
Procedure: as §2, with “Generation of MART-1 RNA and CD40L RNA is described in e.g., DeBenedette et al., J. Immunol. 181(8):5296-5305 (2008).” left out
PME-CD40L DCs derived from HLA-A2-positive donors and transfected with antigen-encoding mRNAs were co-cultured with purified CD8^+ T cells. […] Induction of primary immune responses to MART-1 and memory/recall responses to CMV pp65 were measured on day 10. […]

[6] = tested on: CMV pp65 specific CTLs; test: CMV pp65 specific recall CTL effector function (IFN-γ, TNF-α, IL-2 secretion, CD107a expression); assay type: cell-based, human
Procedure: as §1, §3
To assess the impact mTOR inhibition would have on CTL effector function in vitro, CMV pp65 specific CTLs were assayed for the ability to secret the cytokines IFN-y, TNF-α and IL-2, and express the degranulation marker CD107a, which serves as a surrogate marker to measure lytic activity. Data presented in FIG. 2A and FIG. 2B measures the absolute numbers of CMV […] specific CTLs that secrete IFN-y, TNF-α or IL-2, or express CD107a in response to CMV pp65 peptide pulsed target cells. The absolute numbers of CMV^+ CTLs shown have been corrected for background non-specific responses to display only the antigen specific response for each parameter.

[7] = 10 ng/ml, compared to DC/CTL co-cultures without mTOR inhibitor, day 3 after second weekly stimulation

SMILES | antiproliferative activity in murine tumor xenograft models [1] | antiproliferative activity in vitro [2] | numbers of MART-1+ CTL secreting a cytokine or expressing CD107a [3] | numbers of CMV pp65 specific CTLs [4, 7] | percentage of CMV pp65 specific CTLs [4, 7] | increase in absolute numbers of CMV+ CTL ([4]; 1 µg/ml) | increase in percentage of CMV+ CTL ([4]; 1 µg/ml) | priming of MART-1 specific CTLs by PME-CD40L DC [5] | numbers of CMV+ CTL secreting a cytokine or expressing CD107a ([6]; 10 ng/ml, compared to untreated CTLs) | increase in effector function of CMV+ CTL ([6]; 1 µg/ml)
CO[C@H]1C[C@@H]2CC[C@@H](C)[C@@](O)(O2)C(=O)C(=O)N2CCCC[C@H]2C(=O)O[C@H]([C@H](C)C[C@@H]2CC[C@@H](OP(C)(C)=O)[C@H](OC)C2)CC(=O)[C@H](C)/C=C(\C)[C@@H](O)[C@@H](OC)C(=O)[C@H](C)C[C@H](C)/C=C/C=C/C=C/1C [Ridaforolimus, ridaforolimus] | antiproliferative activity | antiproliferative activity |  |  |  |  |  |  |  | 
CO[C@H]1C[C@@H]2CC[C@@H](C)[C@@](O)(O2)C(=O)C(=O)N2CCCC[C@H]2C(=O)O[C@H]([C@H](C)C[C@@H]2CC[C@@H](OC(=O)C(C)(CO)CO)[C@H](OC)C2)CC(=O)[C@H](C)/C=C(\C)[C@@H](O)[C@@H](OC)C(=O)[C@H](C)C[C@H](C)/C=C/C=C/C=C/1C [temsirolimus] |  |  | increased | increase | increase | evident | evident | able to prime | increased | maintained

Reference: patent US20230061319A1, “METHODS OF TREATING TUMORS” (CoImmune, Inc., priority 2020, published 2023)
